Assay results reported in patent US11773379B2, “Enzymes and reagents for measurement of short chain fatty acids” (SYSMEX CORPORATION, priority 2018, dated 2023).

Assays:
[1] = tested on: butyrate-acetoacetate-CoA transferase (EC 2.8.3.9); assay: Comparative Example 3: measurement using butyrate-acetoacetate-CoA transferase, reaction recovery rate; type: biochemical, E. coli; details: 60 μg/mL butyrate-acetoacetate-CoA transferase in second reagent; 5 mM substrate
Experimental: It was examined whether acetic acid and butyric acid could be measured by the reaction of formula (12), which is the reverse reaction of the formula (11), using butyrate-[…] transferase instead of butyrate kinase. […] The measurement was performed using a 7180 type Hitachi automatic analyzer (Hitachi High-Tech Corporation). […] LLC.) • 0.35 mM Acetoacetyl-CoA (Sigma-Aldrich Co. LLC.) • 2 mM MgCl2 (FUJIFILM Wako Pure Chemical Corporation) • 0.25 mM β-NADH (Oriental Yeast Co., Ltd.) • 5 U/mL 3-hydroxybutyrate dehydrogenase (FUJIFILM Wako Pure Chemical Corporation) […] LLC.) The measurement was performed using a 7180 type Hitachi automatic analyzer (Hitachi High-Tech Corporation). The measurement parameters of the automatic analyzer were the same as in Example 2.

[2] = tested on: BKII (recombinant butyrate kinase derived from Acetoanaerobium sticklandii); assay: Substrate specificity of butyrate kinase BKII; type: biochemical; details: 100 mM sodium salt of fatty acid in second reagent, pH 7.5
Experimental: (§1) Various fatty acids shown in Table 1 were used as a substrate. The measurement was performed using a 7180 type Hitachi automatic analyzer (Hitachi High-Tech Corporation). […] PHARMA CORPORATION) • 5 U/mL ADP-HK II (ADP dependent hexokinase: […] PHARMA CORPORATION) […] In the composition of the second reagent, “sodium salts of various fatty acids” means any one kind of sodium caprylate, sodium caproate, sodium valerate, sodium isovalerate, sodium butyrate, sodium isobutyrate, sodium propionate, sodium acetate, sodium lactate, and sodium succinate. Isobutyric acid, valeric acid, isovaleric acid, caproic acid, and octanoic acid, which are commercially available fatty acids and are not sold as sodium salts, were adjusted to pH 7.5 with sodium hydroxide. […] [Measurement Parameters of Automatic Analyzer] • Analysis method: […]

BKIII = assay: Comparative Example 1: measurement using BKIII, reaction recovery rate; type: biochemical, Thermosediminibacter oceani; details: 5 mM substrate
Experimental: (§2) It was examined whether butyric acid could be measured by using acetate kinase (AK) or propionic acid kinase (PK) instead of butyrate kinase. For comparison, measurement using BKIII was also performed.
(§3) Neutralized 100 mM acetic acid, butyric acid, and isobutyric acid were mixed with physiological saline to prepare a 5 mM acetic acid aqueous solution, a 5 mM butyric acid aqueous solution, and a 5 mM isobutyric acid aqueous solution, respectively.
(§4) The composition of the first reagent was the same as that of the first reagent used for examining the substrate specificity of Reference Example 7.
(§5) AK (Sigma-Aldrich Co. LLC., derived from E. coli), PK (MyBioSource, recombinant protein) and BKIII were added to 100 mM Tris-HCl (pH 7.5) (Sigma-Aldrich Co. LLC.), respectively, to prepare an enzyme solution containing each enzyme at a concentration of 1.25 to 40 U/mL.
(§6) The measurement was performed using a 7180 type Hitachi automatic analyzer (Hitachi High-Tech Corporation). The measurement parameters of the automatic analyzer were the same as in Example 2.
(§7) In the same manner as in Example 2, butyric acid and isobutyric acid in the sample were measured by the automatic analyzer. The reaction recovery rate (%) was calculated by dividing the measured value by the theoretical absorbance value. The theoretical absorbance is the absorbance when all the substrate (butyric acid or isobutyric acid) in the sample is converted to NADPH, and is calculated by the following formula. […] (Theoretical absorbance)= (substrate concentration in sample)×[(sample volume)/(sample volume+ first reagent amount+second reagent amount)]×(NADPH millimole molecular extinction coefficient at 340 nm)= 5×[3.5/(3.5+140+35)]×6.3= 0.617

acetate kinase (AK) = target: T1, acetate kinase (AK) (Escherichia coli, UniProt P0A6A3); assay: Comparative Example 1: measurement using acetate kinase, reaction recovery rate; type: biochemical, E. coli; details: 5 mM substrate
T1 construct: purchased Sigma-Aldrich Co. LLC
Experimental: as §2, §3, §4, §5, §6, §7

[3] = tested on: acetate-CoA transferase (EC 2.8.3.8); assay: Comparative Example 2: measurement using acetate-CoA transferase, reaction recovery rate; type: biochemical, E. coli; details: 30 μg/mL acetate-CoA transferase in second reagent; 5 mM substrate
Text: Acetate-CoA transferase (EC 2.8.3.8) has been reported to catalyze the reaction represented by the following formula (9) (EC 2.8.3.8 in the Enzyme nomenclature database on the ExPASy-SIB Bioinformatics Resource Portal).). It was examined whether butyric acid could be measured by the reaction of formula (10), which is the reverse reaction of formula (9), using acetate-CoA transferase instead of butyrate kinase The acetic acid produced by the formula (10) by acetate-CoA transferase was confirmed by the reaction with AK of Comparative Example 1. The measurement was performed using a 7180 type Hitachi automatic analyzer (Hitachi High-Tech Corporation). [Chemical formula 7] Acyl-CoA+acetic acid ? fatty acid+acetyl-CoA (9) Butyric acid+acetyl-CoA→butyrate-CoA+acetic acid (10)
The 5 mM butyric acid and 5 mM isobutyric acid aqueous solution used in Comparative Example 1 were used. […]
In the same manner as in Example 2, butyric acid and isobutyric acid in the sample were measured by the automatic analyzer. The reaction recovery rate (%) was calculated by dividing the measured value by the theoretical absorbance value of Comparative Example 1.

[4] = tested on: BKIII (recombinant butyrate kinase derived from Thermosediminibacter oceani); assay: Substrate specificity of butyrate kinase BKIII; type: biochemical; details: 100 mM sodium salt of fatty acid in second reagent, pH 7.5
Experimental: as §1

[5] = tested on: propionic acid kinase (PK); assay: Comparative Example 1: measurement using propionic acid kinase, reaction recovery rate; type: biochemical; details: 5 mM substrate
Experimental: as §2, §3, §4, §5, §6, §7

[6] = BKIII activity value in reaction mixed solution 0.3 U/mL
[7] = BKIII activity value in reaction mixed solution 0.5 U/mL
[8] = BKIII activity value in reaction mixed solution 1.0 U/mL
[9] = BKIII activity value in reaction mixed solution 2.0 U/mL
[10] = BKIII activity value in reaction mixed solution 4.0 U/mL
[11] = BKIII activity value in reaction mixed solution 8.0 U/mL
[12] = AK activity value in reaction mixed solution 0.3 U/mL
[13] = AK activity value in reaction mixed solution 0.5 U/mL
[14] = AK activity value in reaction mixed solution 1.0 U/mL
[15] = AK activity value in reaction mixed solution 2.0 U/mL
[16] = AK activity value in reaction mixed solution 4.0 U/mL
[17] = AK activity value in reaction mixed solution 8.0 U/mL
[18] = PK activity value in reaction mixed solution 0.3 U/mL
[19] = PK activity value in reaction mixed solution 0.5 U/mL
[20] = PK activity value in reaction mixed solution 1.0 U/mL
[21] = PK activity value in reaction mixed solution 2.0 U/mL
[22] = PK activity value in reaction mixed solution 4.0 U/mL
[23] = PK activity value in reaction mixed solution 8.0 U/mL

T1 sequence (P0A6A3 whole entry): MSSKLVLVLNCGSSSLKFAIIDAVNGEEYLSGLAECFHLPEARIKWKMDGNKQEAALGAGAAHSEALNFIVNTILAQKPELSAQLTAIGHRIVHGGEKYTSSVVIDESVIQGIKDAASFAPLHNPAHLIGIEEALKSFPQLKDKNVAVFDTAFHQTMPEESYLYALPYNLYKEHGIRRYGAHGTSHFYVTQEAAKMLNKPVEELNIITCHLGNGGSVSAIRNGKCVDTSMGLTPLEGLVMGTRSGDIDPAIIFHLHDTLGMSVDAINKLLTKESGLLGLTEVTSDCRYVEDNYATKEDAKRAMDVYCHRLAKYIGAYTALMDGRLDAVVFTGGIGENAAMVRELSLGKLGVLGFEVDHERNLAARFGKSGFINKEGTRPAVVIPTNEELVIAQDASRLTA

Row | Structure (SMILES) | Reaction recovery rate (%) [1] [%] | substrate specificity, relative value when the activity value with respect to butyric acid is 100 [2] [%] | reaction recovery rate (BKIII; [6]) [%] | reaction recovery rate (BKIII; [7]) [%] | reaction recovery rate (BKIII; [8]) [%] | reaction recovery rate (BKIII; [9]) [%] | reaction recovery rate (BKIII; [10]) [%] | reaction recovery rate (BKIII; [11]) [%] | reaction recovery rate (acetate kinase (AK); [12]) [%] | reaction recovery rate (acetate kinase (AK); [13]) [%] | reaction recovery rate (acetate kinase (AK); [14]) [%] | reaction recovery rate (acetate kinase (AK); [15]) [%] | reaction recovery rate (acetate kinase (AK); [16]) [%] | reaction recovery rate (acetate kinase (AK); [17]) [%] | substrate specificity, relative value when the activity value with respect to butyric acid is 100 [4] [%] | reaction recovery rate [5, 18] [%] | reaction recovery rate [5, 19] [%] | reaction recovery rate [5, 20] [%] | reaction recovery rate [5, 21] [%] | reaction recovery rate [5, 22] [%] | further results
1 | CC(C)C(=O)O [Isobutyric acid] | 2 | 84 | 40 | 55 | 70 | 83 | 91 | 96 | 0 | 0 | 0 | 0 | 0 | 0 | 80 | 0 | 0 | 0 | 0 | 0 | Reaction recovery rate (%) [3]: 4%; reaction recovery rate [5, 23]: 0%
2 | CCCC(=O)O [Butyric acid] | 2 | 100 | 36 | 53 | 70 | 84 | 93 | 98 | 0 | 0 | 0 | 0 | 0 | 0 | 100 | 0 | 0 | 0 | 2 | 4 | Reaction recovery rate (%) [3]: 3%; reaction recovery rate [5, 23]: 8%
3 | CC(=O)O [Acetic acid] | 1 | 1 | 0 | 0 | 0 | 0 | 1 | 2 | 16 | 28 | 44 | 62 | 78 | 88 | 1 | 0 | 2 | 3 | 9 | 21 | reaction recovery rate [5, 23]: 39%
